Measurements: ChEMBL document CHEMBL1201862, “PubChem BioAssay data set” (2004)
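Interpolation was linear, between the two tested concentrations surrounding the appropriate level; five concentrations were tested over 48 hours in 96-well plates. GI50 marks 50% less growth.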 Activity calls are given as the source filed them. Cut-off read from the data, not from the text of the source: active = GI50 up to about 1.1 µM and inactive = higher.

How the values were obtained:
Experiment in all cases: NCI anticancer screen, dose series, 48 h
SK-MEL-2 = test system: SK-MEL-2
IGROV-1 = test system: IGROV-1
COLO 205 = test system: COLO 205
UACC-62 = test system: UACC-62
SNB-75 = test system: SNB-75
KM12 = test system: KM12
DMS-273 = test system: DMS-273
K562 = test system: K562
NCI-H226 = test system: NCI-H226
KM-20L2 = test system: KM-20L2
RXF 393 = test system: RXF 393
TK-10 = test system: TK-10
HOP-18 = test system: HOP-18
NCI-H460 = test system: NCI-H460
DLD-1 = test system: DLD-1
RXF 631 = test system: RXF 631
XF498 = test system: XF498
SF-295 = test system: SF-295
CAKI-1 = test system: CAKI-1
LOX IMVI = test system: LOX IMVI
786-0 = test system: 786-0
UACC-257 = test system: UACC-257
M19-MEL = test system: M19-MEL
SF-268 = test system: SF-268
HT-29 = test system: HT-29
OVCAR-5 = test system: OVCAR-5
HOP-92 = test system: HOP-92
ACHN = test system: ACHN
HCT-15 = test system: HCT-15
SF-539 = test system: SF-539
SNB-78 = test system: SNB-78
HOP-62 = test system: HOP-62
OVCAR-4 = test system: OVCAR-4
M14 = test system: M14
HCT-116 = test system: HCT-116
MOLT-4 = test system: MOLT-4
OVCAR-8 = test system: OVCAR-8
A549 = test system: A549
NCI-H522 = test system: NCI-H522
SN12C = test system: SN12C
HCC 2998 = test system: HCC 2998
NCI-H23 = test system: NCI-H23
LXFL 529 = test system: LXFL 529
A498 = test system: A498
SR = test system: SR
Malme-3M = test system: Malme-3M
CCRF-CEM = test system: CCRF-CEM
EKVX = test system: EKVX
SNB-19 = test system: SNB-19
SK-MEL-5 = test system: SK-MEL-5
UO-31 = test system: UO-31
SK-MEL-28 = test system: SK-MEL-28
SW-620 = test system: SW-620
DMS-114 = test system: DMS-114
OVCAR-3 = test system: OVCAR-3
U-251 = test system: U-251
HL-60 = test system: HL-60
SK-OV-3 = test system: SK-OV-3
RPMI-8226 = test system: RPMI-8226

For `CC[C@H](C)[C@H]1NC(=O)C(C(C)=O)=C1O`, the GI50 (SK-MEL-2) was 95.3 µM (inactive), the GI50 (IGROV-1) was > 100 µM (inactive) and the GI50 (COLO 205) was > 100 µM (inactive). For the same molecule, the GI50 (UACC-62) was 97.5 µM (inactive), the GI50 (SNB-75) was 91.2 µM (inactive) and the GI50 (KM12) was 96.4 µM (inactive). For the same molecule, the GI50 (DMS-273) was > 100 µM (inactive), the GI50 (K562) was > 100 µM (inactive) and the GI50 (NCI-H226) was > 100 µM (inactive). For the same molecule, the GI50 (KM-20L2) was > 100 µM (inactive), the GI50 (RXF 393) was 23.3 µM (inactive) and the GI50 (TK-10) was > 100 µM (inactive). The GI50 (HOP-18) was 58.1 µM (inactive), the GI50 (NCI-H460) was 80 µM (inactive) and the GI50 (DLD-1) was 70.3 µM (inactive). For the same molecule, the GI50 (RXF 631) was 92.5 µM (inactive), the GI50 (XF498) was > 100 µM (inactive) and the GI50 (SF-295) was > 100 µM (inactive). For the same molecule, the GI50 (CAKI-1) was > 100 µM (inactive), the GI50 (LOX IMVI) was 62.4 µM (inactive) and the GI50 (786-0) was 98.6 µM (inactive). For the same molecule, the GI50 (UACC-257) was 51.6 µM (inactive), the GI50 (M19-MEL) was 71.3 µM (inactive) and the GI50 (SF-268) was 55.2 µM (inactive). For the same molecule, the GI50 (HT-29) was > 100 µM (inactive), the GI50 (OVCAR-5) was > 100 µM (inactive) and the GI50 (HOP-92) was > 100 µM (inactive). For the same molecule, the GI50 (ACHN) was > 100 µM (inactive), the GI50 (HCT-15) was 79.8 µM and the GI50 (SF-539) was > 100 µM (inactive). For the same molecule, the GI50 (SNB-78) was > 100 µM (inactive), the GI50 (HOP-62) was > 100 µM (inactive) and the GI50 (OVCAR-4) was 95.9 µM (inactive). For the same molecule, the GI50 (M14) was > 100 µM (inactive), the GI50 (HCT-116) was 51.9 µM (inactive) and the GI50 (MOLT-4) was > 100 µM (inactive). The GI50 (OVCAR-8) was > 100 µM (inactive), the GI50 (A549) was > 100 µM (inactive) and the GI50 (NCI-H522) was 88.5 µM (inactive). The GI50 (SN12C) was 83.6 µM (inactive), the GI50 (HCC 2998) was 54 µM (inactive) and the GI50 (NCI-H23) was > 100 µM (inactive). For the same molecule, the GI50 (LXFL 529) was 66.5 µM (inactive), the GI50 (A498) was > 100 µM (inactive) and the GI50 (SR) was 58.3 µM (inactive). The GI50 (Malme-3M) was > 100 µM (inactive), the GI50 (CCRF-CEM) was 52.2 µM (inactive) and the GI50 (EKVX) was > 100 µM (inactive). The GI50 (SNB-19) was 78.3 µM (inactive), the GI50 (SK-MEL-5) was 98.9 µM (inactive) and the GI50 (UO-31) was > 100 µM (inactive). The GI50 (SK-MEL-28) was 64 µM (inactive), the GI50 (SW-620) was 21.4 µM (inactive) and the GI50 (DMS-114) was 76.7 µM (inactive). For the same molecule, the GI50 (OVCAR-3) was 72.9 µM (inactive), the GI50 (U-251) was 52.7 µM (inactive) and the GI50 (HL-60) was 99.8 µM (inactive).
In the case of `CNC(=S)NC(=S)N(C)C`, the GI50 (IGROV-1) is reported as > 100 µM (inactive), the GI50 (SNB-75) is reported as > 100 µM (inactive) and the GI50 (DMS-273) is reported as 0.869 µM (active). For the same molecule, the GI50 (K562) was 1.75 µM (inactive), the GI50 (NCI-H226) was > 100 µM (inactive) and the GI50 (KM-20L2) was > 100 µM (inactive). The GI50 (RXF 393) was > 100 µM (inactive), the GI50 (SK-OV-3) was > 100 µM (inactive) and the GI50 (TK-10) was > 100 µM (inactive). For the same molecule, the GI50 (HOP-18) was > 100 µM (inactive), the GI50 (NCI-H460) was 2.71 µM (inactive) and the GI50 (DLD-1) was 5.48 µM (inactive). For the same molecule, the GI50 (RXF 631) was > 100 µM (inactive), the GI50 (XF498) was > 100 µM (inactive) and the GI50 (SF-295) was > 100 µM (inactive). The GI50 (CAKI-1) was > 100 µM (inactive), the GI50 (LOX IMVI) was 4.95 µM (inactive) and the GI50 (786-0) was > 100 µM (inactive). For the same molecule, the GI50 (UACC-257) was > 100 µM (inactive), the GI50 (SF-268) was > 100 µM (inactive) and the GI50 (HOP-92) was > 100 µM (inactive). For the same molecule, the GI50 (ACHN) was > 100 µM (inactive), the GI50 (HCT-15) was > 100 µM and the GI50 (SF-539) was > 100 µM (inactive). For the same molecule, the GI50 (SNB-78) was > 100 µM (inactive), the GI50 (HOP-62) was > 100 µM (inactive) and the GI50 (OVCAR-4) was > 100 µM (inactive). For the same molecule, the GI50 (M14) was > 100 µM (inactive), the GI50 (RPMI-8226) was 1.67 µM (inactive) and the GI50 (HCT-116) was 4.71 µM (inactive). For the same molecule, the GI50 (MOLT-4) was 3.61 µM (inactive), the GI50 (OVCAR-8) was 4.94 µM (inactive) and the GI50 (A549) was 7.67 µM (inactive). For the same molecule, the GI50 (NCI-H522) was 0.678 µM (active), the GI50 (SN12C) was > 100 µM (inactive) and the GI50 (HCC 2998) was > 100 µM (inactive). For the same molecule, the GI50 (NCI-H23) was 0.692 µM (active), the GI50 (LXFL 529) was > 100 µM (inactive) and the GI50 (A498) was > 100 µM (inactive). For the same molecule, the GI50 (SR) was 3.44 µM (inactive), the GI50 (EKVX) was > 100 µM (inactive) and the GI50 (SNB-19) was > 100 µM (inactive). The GI50 (UO-31) was > 100 µM (inactive), the GI50 (SK-MEL-28) was 6.32 µM (inactive) and the GI50 (SW-620) was 2.96 µM (inactive). The GI50 (DMS-114) was 64.9 µM (inactive), the GI50 (OVCAR-3) was 3.18 µM (inactive) and the GI50 (U-251) was > 100 µM (inactive). The GI50 (HL-60) was 3.42 µM (inactive).
